For twelve compounds, Ki results are on record in article PMC10222120, “Inhibition Studies on Human and Mycobacterial Carbonic Anhydrases with N-((4-Sulfamoylphenyl)carbamothioyl) Amides” (Molecules, 2023).

Experiment in all cases: stopped-flow CO2 hydrase assay
Assay type in all cases: biochemical

For one assay, the target named is T1, hCA I (Homo sapiens, UniProt P00915).
T1 construct: gene CA1; recombinant, obtained in-house; cytosolic alpha-CA
The note with it: read-out: KI (nM) ^a / hCA I (α-CA). The source says:
stopped-flow CO2 hydrase assay on hCA I

A further assay deals with MtCA1 (Mycobacterium tuberculosis, UniProt P9WPJ7). To be noted: read-out: KI (nM) ^a / MtCA1 (β-CA).
In the next assay the target is T2, MtCA3 (Mycobacterium tuberculosis, UniProt P96878).
T2 construct: gene Rv3273
The note with it: CO2 […]; […] TRIS pH […]; […] Na2SO4; […] h preincubation at room temperature; read-out: KI (nM) ^a / MtCA3 (β-CA). An excerpt:
stopped-flow CO2 hydrase assay on MtCA3

The target of a further assay is T3, hCA II (Homo sapiens, UniProt P00918).
T3 construct: gene CA2; recombinant, obtained in-house; cytosolic alpha-CA
The note with it: read-out: KI (nM) ^a / hCA II (α-CA). The source says: stopped-flow CO2 hydrase assay on hCA II

The next assay has as its target T4, hCA VII (Homo sapiens, UniProt P43166).
T4 construct: gene CA7; recombinant, obtained in-house; cytosolic alpha-CA
To be noted: read-out: KI (nM) ^a / hCA VII (α-CA). The source says:
stopped-flow CO2 hydrase assay on hCA VII

Another assay addresses MtCA2 (Mycobacterium tuberculosis, UniProt P9WPJ9). To be noted: read-out: KI (nM) ^a / MtCA2 (β-CA).

Chain of MtCA1 (P9WPJ7 2-163): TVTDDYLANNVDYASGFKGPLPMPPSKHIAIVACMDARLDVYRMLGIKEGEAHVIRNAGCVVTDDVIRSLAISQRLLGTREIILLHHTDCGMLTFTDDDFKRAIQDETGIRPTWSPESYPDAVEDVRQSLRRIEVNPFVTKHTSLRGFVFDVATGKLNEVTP
Chain of MtCA2 (P9WPJ9 whole entry, looked up): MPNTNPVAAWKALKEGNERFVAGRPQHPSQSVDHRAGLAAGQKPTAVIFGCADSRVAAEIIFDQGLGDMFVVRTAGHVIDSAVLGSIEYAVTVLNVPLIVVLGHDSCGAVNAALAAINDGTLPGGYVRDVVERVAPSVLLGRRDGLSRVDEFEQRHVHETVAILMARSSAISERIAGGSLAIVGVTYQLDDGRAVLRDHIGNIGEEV
T2 sequence (P96878 555-764 limits assumed): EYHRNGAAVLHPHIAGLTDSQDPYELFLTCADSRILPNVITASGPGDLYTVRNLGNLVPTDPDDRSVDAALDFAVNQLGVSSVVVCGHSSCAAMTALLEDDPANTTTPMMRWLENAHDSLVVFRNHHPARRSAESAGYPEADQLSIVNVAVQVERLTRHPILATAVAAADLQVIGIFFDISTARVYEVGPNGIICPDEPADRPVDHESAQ
T1 sequence (P00915 2-261): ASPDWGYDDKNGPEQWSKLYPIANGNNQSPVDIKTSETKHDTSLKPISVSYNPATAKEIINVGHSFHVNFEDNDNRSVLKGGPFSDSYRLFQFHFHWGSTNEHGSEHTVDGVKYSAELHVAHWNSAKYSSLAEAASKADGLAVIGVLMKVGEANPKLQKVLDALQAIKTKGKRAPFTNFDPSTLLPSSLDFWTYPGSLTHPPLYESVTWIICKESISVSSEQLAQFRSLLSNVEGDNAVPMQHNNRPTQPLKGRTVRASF
T4 sequence (P43166 whole entry): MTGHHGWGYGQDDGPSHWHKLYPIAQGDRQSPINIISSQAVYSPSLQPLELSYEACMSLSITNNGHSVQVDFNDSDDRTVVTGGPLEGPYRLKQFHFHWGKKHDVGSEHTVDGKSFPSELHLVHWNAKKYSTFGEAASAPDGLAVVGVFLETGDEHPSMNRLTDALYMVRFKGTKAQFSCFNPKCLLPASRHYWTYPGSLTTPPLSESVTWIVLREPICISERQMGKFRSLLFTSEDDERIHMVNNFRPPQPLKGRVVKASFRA

On to `CCCCCC(=O)NC(=S)Nc1ccc(S(N)(=O)=O)cc1` [3g, N-((4-sulfamoylphenyl)carbamothioyl)hexanamide], for which the Ki on hCA I was determined as 13.3 nM; at MtCA1, 3510 nM; on MtCA3 it was 719 nM; on hCA II, 46.5 nM; at hCA VII, 3.2 nM; on MtCA2 it was 3.4 nM.
Turning to `CC(=O)NC(=S)Nc1ccc(S(N)(=O)=O)cc1` [3a, N-((4-Sulfamoylphenyl)carbamothioyl)acetamide], the Ki at hCA I turned out to be 85.2 nM; at MtCA1 it was 897 nM; on MtCA3, 610 nM; on hCA II it was 78.7 nM; on hCA VII, 13.5 nM; at MtCA2 it was 4.4 nM.
In the case of `CC(C)C(=O)NC(=S)Nc1ccc(S(N)(=O)=O)cc1` [3e, N-((4-sulfamoylphenyl)carbamothioyl)isobutyramide], the Ki was determined as 72.7 nM on hCA I; 369 nM at MtCA1; 3670 nM at MtCA3; 8.9 nM at hCA II; 1.1 nM on hCA VII; 57.1 nM on MtCA2.
For the compound `CCC(=O)NC(=S)Nc1ccc(S(N)(=O)=O)cc1` [3b, N-((4-Sulfamoylphenyl)carbamothioyl)propionamide], the Ki at hCA I was 58.3 nM; on MtCA1, 252 nM; at MtCA3 it was 806 nM; on hCA II it was 35.9 nM; at hCA VII, 2.8 nM; on MtCA2 it was 5.4 nM.
As for `NS(=O)(=O)c1ccc(NC(=S)NC(=O)Cc2cccc3ccccc23)cc1` [3i, 2-(Naphthalen-1-yl)-N-((4-sulfamoylphenyl)carbamothioyl)acetamide], the Ki at hCA I amounted to 60.5 nM; at MtCA1, 962 nM; on MtCA3 it was 2130 nM; at hCA II, 9.7 nM; at hCA VII it was 2.6 nM; at MtCA2, 4.6 nM.
With `NS(=O)(=O)c1ccc(NC(=S)NC(=O)C2CC2)cc1` [3d, N-((4-Sulfamoylphenyl)carbamothioyl)cyclopropanecarboxamide], the Ki at hCA I worked out at 87.4 nM; on MtCA1, 95.2 nM; at MtCA3, 6280 nM; at hCA II, 384 nM; on hCA VII, 1.9 nM; at MtCA2, 4.2 nM.
In the case of `NS(=O)(=O)c1ccc(NC(=S)NC(=O)c2ccc([N+](=O)[O-])cc2)cc1` [3l, 4-nitro-N-((4-sulfamoylphenyl)carbamothioyl)benzamide], the Ki on hCA I amounted to 87.6 nM; on MtCA1 it was 868 nM; on MtCA3, 5280 nM; on hCA II, 6.8 nM; at hCA VII, 2.5 nM; on MtCA2, 4.8 nM.
In the case of `CC(C)CC(=O)NC(=S)Nc1ccc(S(N)(=O)=O)cc1` [3f, 3-methyl-N-((4-sulfamoylphenyl)carbamothioyl)butanamide], the Ki turned out to be 36.4 nM at hCA I; 782 nM at MtCA1; 8390 nM at MtCA3; 5.3 nM on hCA II; 2.1 nM on hCA VII; 21.1 nM on MtCA2.
`NS(=O)(=O)c1ccc(NC(=S)NC(=O)/C=C/c2ccccc2)cc1` [3k, N-((4-Sulfamoylphenyl)carbamothioyl)cinnamamide]: the Ki on hCA I was 47.9 nM; at MtCA1, 224 nM; on MtCA3, 447 nM; on hCA II, 9.2 nM; at hCA VII it was 3.1 nM; on MtCA2, 8.1 nM.
As for `CCCC(=O)NC(=S)Nc1ccc(S(N)(=O)=O)cc1` [3c, N-((4-Sulfamoylphenyl)carbamothioyl)butyramide], the Ki is 50.3 nM at hCA I; 784 nM on MtCA1; 9400 nM at MtCA3; 7.7 nM at hCA II; 3 nM on hCA VII; 7.6 nM at MtCA2.
For `C/C=C/C(=O)NC(=S)Nc1ccc(S(N)(=O)=O)cc1` [3j, N-((4-Sulfamoylphenyl)carbamothioyl)but-2-enamide], the Ki at hCA I worked out at 69.4 nM; on MtCA1, 2420 nM; at MtCA3, 851 nM; on hCA II, 64.6 nM; at hCA VII, 10.3 nM; at MtCA2, 9.2 nM.
Regarding `NS(=O)(=O)c1ccc(NC(=S)NC(=O)C2CCCCC2)cc1` [3h, N-((4-Sulfamoylphenyl)carbamothioyl)cyclohexanecarboxamide], the Ki worked out at 67.8 nM on hCA I; 6670 nM at MtCA1; 7140 nM on MtCA3; 21.7 nM at hCA II; 2.2 nM at hCA VII; 8.4 nM at MtCA2.
